Results from EP1285918A1, “C7 Ester substituted taxanes as antitumor agents” (Florida State University Research Foundation, Inc., priority 2001, dated 2003).
Read-outs that look alike come from different tables or passages of the source.

Legend:
[1] = tested on: DU 145 Human Prostate Carcinoma Xenografts; conditions: DU145; for Mean Score: tumor score 1 to 10, group mean
Method in brief: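 Male NCr-nude mice bearing subcutaneous DU145 fragments (five per group) received one i.v. dose at each agent's estimated MTD on Day 1, with vehicle controls; the study ran to Day 91. Survival was counted until tumour reached 1.5 g. Complete or partial response was scored by palpability or shrinkage below Day-1 size.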

[2] = tested on: A375 Human Melanoma Xenografts; conditions: A375; for Mean Score: tumor score 1 to 10, group mean
Method in brief: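 Female NCr-nude mice carrying subcutaneous flank A375 implants (1 mm^3), six per group (Taxotere seven). Single i.v. dose on Day 1 at each agent's estimated MTD (Taxotere 70 mg/kg), vehicle i.v. for controls; study ended Day 60. Survival days counted to 2.0 g tumor; complete response = non-palpable tumor at study end, partial = smaller than on Day 1.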

[3] = tested on: Panc-1 Human Pancreatic Carcinoma Xenografts
Method in brief: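 Female NCr-nude mice with subcutaneous flank Panc-1 fragments, six per group, dosed i.v. once on Day 1 at estimated MTD (Taxotere 70 mg/kg); vehicle controls. Survival taken as days until tumor reached 1.5 g; complete response = nonpalpable tumor at Day 63, partial = smaller than Day 1 size.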

[4] = tested on: VM46 Human Colon Carcinoma Xenografts
Method in brief: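 Female NCr-nude mice bearing subcutaneous VM46 colon carcinoma fragments, six per group, given compounds i.v. once on Day 1 at estimated MTD; vehicle i.v. for controls. Endpoints to Day 64: mean days of survival (tumor reaching 1.5 g), toxic deaths, survivors, complete/partial responses and stable disease.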

[5] = tested on: A375 Human Melanoma Xenograft
Protocol: Female nu/nu mice (6-8 weeks of age; implanted subcutaneously with 1 mm^3 A375 melanoma fragments in the flank) were sorted into one control and four treatment groups of ten mice each (group mean tumor size of 96-98 mg). […] The study was terminated on Day 60.
The mean days of survival is the number of days after which a neoplasm reached a size of 2.0 g and the animal was euthanized. A complete response is obtained if the tumor is not palpable at the end of the study. A partial response is obtained if the tumor shrinks to a size smaller than its size on Day 1 of the study.

[6] = tested on: HCT116 Human Colon Carcinoma Xenograft; conditions: for Mean Score: tumor score 1 to 10, group mean
[7] = Taxol i.p. 18 mg/kg qd x 5, 5 mice, Day 91
[8] = i.v. qd x 1 (mg/kg: Taxol 24, 1351 107.6, 1393 72.6, 1401 107.6, 1418 107.6, 1424 195.1), 5 mice/group, Day 91
[9] = Taxol i.p. 18 mg/kg qd x 5, 6 mice, Day 60
[10] = i.v. qd x 1 (mg/kg: Taxol 24, 1351 107.6, 1393 72.6, 1401 107.6, 1418 107.6, 1424 195.1, Taxotere 70), Day 60
[11] = 15 mg/kg i.p. qd x 5, 6 mice/group, study end Day 63
[12] = 24 mg/kg i.v. qd x 1 as two split doses, 6 mice/group, study end Day 63
[13] = 15 mg/kg i.p. qd x 5, 6 mice/group, study end Day 64
[14] = 24 mg/kg i.v. qd x 1, 6 mice/group, study end Day 64
[15] = VM46, Taxol 24 mg/kg i.v. qd x 1, 6 mice, Day 64
[16] = 40 mg/kg single oral bolus, 10 mice/group, study end Day 60
[17] = HCT116, Taxol i.p. 18 mg/kg qd x 5
[18] = HCT116, Taxol i.p. 18 mg/kg qd x 5, 5 mice, Day 60
[19] = HCT116, i.v. Day 1 (Taxol 36 mg/kg split dose, 1393 73 mg/kg single dose), 5 mice/group, Day 60

CC(=O)O[C@H]1C(=O)[C@@]2(C)[C@H]([C@H](OC(=O)c3ccccc3)[C@]3(O)C[C@H](OC(=O)[C@H](O)[C@@H](NC(=O)c4ccccc4)c4ccccc4)C(C)=C1C3(C)C)[C@]1(OC(C)=O)CO[C@@H]1C[C@@H]2O [Taxol, paclitaxel, reference compound]
increase in survival compared to Group 1 controls ([1]; Taxol 24 mg/kg i.v. qd x 1): 9% | toxicity ([1]; Taxol i.p. 18 mg/kg qd x 5): highly toxic | weight loss ([1]; Taxol i.p. 18 mg/kg qd x 5): more than 20% | Complete Response [1, 7]: 0 | Partial Response [1, 7]: 0 | Stable Disease [1, 7]: 0 | Survivors [1, 7]: 0 | Mean Score ([1]; Taxol i.p. 18 mg/kg qd x 5): 0 ± 0 | MDS (n) ([1]; i.v. qd x 1 (mg/kg: Taxol 24, 1351 107.6, 1393 72.6, 1401 107.6, 1418 107.6, 1424 195.1), 5 mice/group, 1.5 g cut-off, Day 91): 37.4 ± 8.9 (3) days | Complete Response [1, 8]: 0 | Partial Response [1, 8]: 0 | Stable Disease [1, 8]: 1 | Survivors [1, 8]: 1 | Mean Score ([1]; i.v. qd x 1 (mg/kg: Taxol 24, 1351 107.6, 1393 72.6, 1401 107.6, 1418 107.6, 1424 195.1)): 2 ± 1 | toxicity ([2]; Taxol i.p. 18 mg/kg qd x 5): highly toxic | Complete Response [2, 9]: 0 | Partial Response [2, 9]: 0 | Stable Disease [2, 9]: 0 | Survivors [2, 9]: 0 | Mean Score ([2]; Taxol i.p. 18 mg/kg qd x 5): 0±0 | MDS (n) ([2]; i.v. qd x 1 (mg/kg: Taxol 24, 1351 107.6, 1393 72.6, 1401 107.6, 1418 107.6, 1424 195.1, Taxotere 70), 2.0 g cut-off, Day 60): 18.1 ± 0.6 (4) days | Complete Response [2, 10]: 0 | Partial Response [2, 10]: 0 | Stable Disease [2, 10]: 0 | Survivors [2, 10]: 0 | Toxic Deaths [2, 10]: 2 | Mean Score ([2]; i.v. qd x 1 (mg/kg: Taxol 24, 1351 107.6, 1393 72.6, 1401 107.6, 1418 107.6, 1424 195.1, Taxotere 70)): 0.8 ± 0.3 | survival extension compared to Group 1 controls ([2]; i.v. qd x 1 (mg/kg: Taxol 24, 1393 72.6, 1418 107.6, Taxotere 70)): 26% | Complete Response [3, 11]: 0 | Mean Score [3, 11]: 1.2 ± 1.2 | Partial Response [3, 11]: 1 | Stable Disease [3, 11]: 0 | Survivors [3, 11]: 1 | Toxic Deaths [3, 11]: 4 | Complete Response [3, 12]: 0 | Mean Score [3, 12]: 2.2 ± 0.8 | Partial Response [3, 12]: 0 | Stable Disease [3, 12]: 1 | Survivors [3, 12]: 1 | Toxic Deaths [3, 12]: 1 | MDS (n) ([3]; 24 mg/kg i.v. qd x 1 as two split doses, 6 mice/group, study end Day 63, days until tumor reached 1.5 g): 34.7 ± 3.4 days | Toxic Deaths ([3]; Panc-1, Taxol i.p. 15 mg/kg qd x 5, 6 mice): four | Toxic Deaths ([3]; Panc-1, i.v. qd x 1 (mg/kg: Taxol 24, 1351 75.32, 1393 72.6, 1401 107.6, 1418 107.6, 1424 195.1), 6 mice/group): One | MDS ([3]; Panc-1, i.v. qd x 1 (mg/kg: Taxol 24, 1351 75.32, 1393 72.6, 1401 107.6, 1418 107.6, 1424 195.1), 6 mice/group, 1.5 g cut-off, Day 63): 34.7 days | Stable Disease ([3]; Panc-1, i.v. qd x 1 (mg/kg: Taxol 24, 1393 72.6, 1418 107.6), 6 mice/group, Day 63): one | Complete Response [4, 13]: 0 | Mean Score [4, 13]: 1.8 ± 1.3 | Partial Response [4, 13]: 1 | Stable Disease [4, 13]: 0 | Survivors [4, 13]: 1 | Toxic Deaths [4, 13]: 3 | MDS (n) ([4]; 15 mg/kg i.p. qd x 5, 6 mice/group, study end Day 64, days until tumor reached 1.5 g): 36.1 ± 12.2 (2) days | Complete Response [4, 14]: 0 | Mean Score [4, 14]: 3.8 ± 1.4 | Partial Response [4, 14]: 1 | Stable Disease [4, 14]: 1 | Survivors [4, 14]: 2 | Toxic Deaths [4, 14]: 0 | Partial Response [4, 15]: one | Stable Disease [4, 15]: one | toxicity ([4]; VM46, Taxol i.p. 15 mg/kg qd x 5): excessively toxic | mortalities ([4]; VM46, Taxol i.p. 15 mg/kg qd x 5, 6 mice): three | Complete Response [5, 16]: 0 | Partial Response [5, 16]: 1 | Stable Disease [5, 16]: 1 | Survivors [5, 16]: 2 | Toxic Deaths [5, 16]: 0 | MDS (n) ([5]; 40 mg/kg single oral bolus, 10 mice/group, study end Day 60, days until tumor reached 2.0 g): 23.7 ± 3.0 (8) days | activity ([5]; A375, paclitaxel 40 mg/kg single oral bolus (Group 2)): not active | increase in survival compared to control Group 1 ([6]; HCT116, Taxol 36 mg/kg i.v. qd x 1): 24% | survival extension compared to Group 1 control mice [6, 17]: 84% | Complete Response [6, 18]: 0 | Stable Disease [6, 18]: 0 | Survivors [6, 18]: 1 | Toxic Deaths [6, 18]: 0 | Mean Score [6, 17]: 3.6 ± 1.4 | MDS (n) ([6]; HCT116, i.v. Day 1 (Taxol 36 mg/kg split dose, 1393 73 mg/kg single dose), 5 mice/group, 2.0 g cut-off, Day 60): 27.5 ± 1.7 (4) days | Complete Response [6, 19]: 0 | Partial Response [6, 19]: 0 | Survivors [6, 19]: 1 | Toxic Deaths [6, 19]: 0 | Mean Score ([6]; HCT116, i.v. Day 1 (Taxol 36 mg/kg split dose, 1393 73 mg/kg single dose)): 2.2 ± 0.5 | tolerability ([6]; mouse, in vivo, iv, 73 mg/kg): well-tolerated
